As usually defined, the IC50 is the concentration that gives 50% inhibition.

The subject of assay [1] is m6A in cellular mRNA of MOLM-13 cells. Put plainly: m6A-mRNA LC-MS/MS Assay (m6A cellular assay). It is filed as cell-based. Conditions: Homo sapiens, MOLM-13, read-out: m^6A IC50. The procedure: Cells were harvested by centrifugation followed by mRNA extraction using DIRECT Dynabeads mRNA DIRECT kit (Life Technologies). mRNA was quantified on NanoDrop spectrophotometer (Thermo Fisher Scientific) and digested into single nucleosides using Nucleoside Digestion Mix (New England Biolabs). […] Quantification is performed in comparison with the standard curve, obtained from pure nucleoside standards (Selleck Chemicals) running with the same batch of samples. Percentage m^6A in cellular mRNA is calculated as 100*(m^6A/A).

Assay [2] has as its system MOLM-13 cells. Put plainly: MOLM-13 96 Hour Cell Proliferation Assay. It is filed as cell-based. Conditions: Homo sapiens, MOLM-13, 96 h. Put shortly: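 MOLM-13 cells in RPMI 1640 with 10% FBS were plated overnight at 37 °C, then exposed to compound dilutions at 0.25% DMSO final for 96 h. Viability was read by CellTiter-Glo luminescence, normalised to staurosporine (100% death) and DMSO (0% death) controls, and IC50 was fitted by 4-parameter logistic regression.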

Assay [3] deals with PRMT5-MEP50 (Homo sapiens, UniProt O14744). Put plainly: PRMT5 Assay (PRMT5 biochemical assay). Put shortly:
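PRMT5-MEP50 (2.5 nM final) preincubated 5 min with compound, then reacted 60 min at ambient temperature with 100 nM biotinylated N-acetyl histone H4 peptide and 250 nM 3H-SAM in 20 mM Tris-HCl pH 8.0, 1 mM DTT, 0.01% Tween. Quenched with 15 μM cold SAM; methylated peptide captured on streptavidin flashplates, scintillation counted.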

The target in assay [4] is METTL3/METTL14 (Homo sapiens, UniProt Q86U44). Put plainly: METTL3-14 Standard Enzyme Assay (METTL3 biochemical assay). Put shortly: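 METTL3/METTL14 at 2.5 nM, preincubated 5 min with compound in 20 mM HEPES pH 7.5, 50 mM KCl, 250 μM MgCl2, 1 mM DTT, at ambient temperature. Started with 100 nM 3′-biotinylated RNA and 100 nM ³H-SAM, quenched at 30 min with 15 μM cold SAM. Methylation read by scintillation on streptavidin flashplates.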

The test system of assay [5] is MOLM-13 cells. Nature of the assay: MOLM-13 48 Hour Cell Proliferation Assay. The class given is cell-based. The following applies: Homo sapiens. Put shortly: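 MOLM-13 cells in RPMI 1640 with 10% FBS, plated overnight, then exposed 48 h at 37 °C to a 10-point, 4-fold compound dilution series (0.25% DMSO final). Viability read by CellTiter-Glo luminescence, normalized to staurosporine (100% death) and DMSO (0%); IC50 from 4-parameter logistic fit.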

Assay [6] concerns the target METTL1/WDR4 (Homo sapiens, UniProt Q9UBP6). Put plainly: METTL1 Assay (METTL1 biochemical assay). Put shortly:
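Radiometric methyltransfer by METTL1/WDR4 (6.25 nM f.c., 5 min preincubation) at ambient temperature in HEPES pH 7.5, KCl, MgCl2, DTT; started with 25 nM 3′-biotinylated RNA and 60 nM 3H-SAM, run 20 min, quenched with 15 μM cold SAM. Product captured on streptavidin flashplates (2 h, 25° C), counted by scintillation.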

Assay [7] addresses T1, METTL16 (Homo sapiens, UniProt Q86W50).
T1 sequence (Q86W50 1-562): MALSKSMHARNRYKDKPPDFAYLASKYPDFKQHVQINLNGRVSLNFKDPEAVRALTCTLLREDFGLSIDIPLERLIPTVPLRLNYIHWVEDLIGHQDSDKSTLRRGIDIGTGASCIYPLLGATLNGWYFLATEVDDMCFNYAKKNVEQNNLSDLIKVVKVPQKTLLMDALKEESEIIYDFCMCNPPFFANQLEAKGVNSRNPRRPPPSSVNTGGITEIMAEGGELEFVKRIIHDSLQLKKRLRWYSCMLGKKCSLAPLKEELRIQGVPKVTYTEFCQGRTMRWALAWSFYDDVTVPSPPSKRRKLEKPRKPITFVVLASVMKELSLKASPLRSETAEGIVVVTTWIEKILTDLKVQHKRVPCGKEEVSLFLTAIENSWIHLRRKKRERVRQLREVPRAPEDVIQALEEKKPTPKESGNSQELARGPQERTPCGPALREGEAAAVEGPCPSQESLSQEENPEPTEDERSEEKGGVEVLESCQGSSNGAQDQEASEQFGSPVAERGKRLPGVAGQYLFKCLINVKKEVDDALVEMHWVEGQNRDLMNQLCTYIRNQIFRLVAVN
Nature of the assay: METTL16 Assay (METTL16 biochemical assay). The following applies: read-out: METTL16 IC50. The procedure: Assays were performed in a 25 μl-volume in 384-well V-bottom polypropylene microplates (Greiner Bio-One, cat. No. 781280) at ambient temperature. Optimized 1× assay buffer was 20 mM HEPES pH 7.5, 50 mM KCl, 1 mM DTT, 0.01% Tween, 0.01% BSG, 0.004 U/μl RNAseOUT (cat. No. 10777019, ThermoFisher Scientific, Waltham, Mass.). For compound screening METTL16 (final concentration, f.c.=100 nM) was added using a Multidrop Combi (ThermoFisher Scientific, Waltham, Mass.) and preincubated for 5 min. Reactions were started by adding 3′ biotinylated RNA ([…]-biotin) (f.c.=50 nM), 3H-SAM (f.c.=200 nM) and non-radiolabeled SAM (f.c.=800 nM) substrates. Reactions proceeded for 20 minutes and were quenched with excess non-radioactive SAM (f.c.=100 μM). The reactions were then transferred to streptavidin-coated flashplates and incubated for 2 hours at 25° C. Following two washing cycles with 0.1% Tween-20, the plates were sealed and read on a TopCount (PerkinElmer, Waltham, Mass.) plate-based scintillation counter. For determination of kinetic parameters, reaction times were optimized so that measurements were taken during the initial velocity phase of the reaction.

[8] abbreviates: PRMT5 biochemical assay, read-out: PRMT5 IC50.
Setting [9] is: METTL3 biochemical assay, read-out: METTL3 IC50.
Setting [10] is: read-out: METTL1 IC50, METTL1 biochemical assay.
Where [11] appears, read: read-out: PRMT5 IC50, PRMT5 biochemical assay.
Setting [12] is: read-out: METTL3 IC50, METTL3 biochemical assay.
The mark [13] stands for this setting: METTL1 biochemical assay, read-out: METTL1 IC50.

Where two headings read alike, the source gives them in different places.

Chain of METTL3/METTL14 (Q86U44 whole entry, species assumed): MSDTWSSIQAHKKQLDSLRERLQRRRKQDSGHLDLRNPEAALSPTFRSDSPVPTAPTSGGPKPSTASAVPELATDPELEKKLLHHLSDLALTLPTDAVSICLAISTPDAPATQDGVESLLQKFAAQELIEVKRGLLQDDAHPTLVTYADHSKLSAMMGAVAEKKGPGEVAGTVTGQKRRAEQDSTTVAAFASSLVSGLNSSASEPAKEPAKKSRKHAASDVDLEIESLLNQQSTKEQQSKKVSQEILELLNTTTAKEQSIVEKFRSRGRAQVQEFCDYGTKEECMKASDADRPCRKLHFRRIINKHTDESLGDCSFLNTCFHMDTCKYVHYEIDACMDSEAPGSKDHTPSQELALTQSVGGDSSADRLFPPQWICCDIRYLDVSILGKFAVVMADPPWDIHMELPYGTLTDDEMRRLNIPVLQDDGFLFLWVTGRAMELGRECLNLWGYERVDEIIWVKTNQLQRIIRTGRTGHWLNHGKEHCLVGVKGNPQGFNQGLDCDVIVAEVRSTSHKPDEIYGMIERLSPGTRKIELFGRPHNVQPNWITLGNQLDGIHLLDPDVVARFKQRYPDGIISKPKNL
Chain of METTL3/METTL14 (Q9HCE5 whole entry partner, species assumed): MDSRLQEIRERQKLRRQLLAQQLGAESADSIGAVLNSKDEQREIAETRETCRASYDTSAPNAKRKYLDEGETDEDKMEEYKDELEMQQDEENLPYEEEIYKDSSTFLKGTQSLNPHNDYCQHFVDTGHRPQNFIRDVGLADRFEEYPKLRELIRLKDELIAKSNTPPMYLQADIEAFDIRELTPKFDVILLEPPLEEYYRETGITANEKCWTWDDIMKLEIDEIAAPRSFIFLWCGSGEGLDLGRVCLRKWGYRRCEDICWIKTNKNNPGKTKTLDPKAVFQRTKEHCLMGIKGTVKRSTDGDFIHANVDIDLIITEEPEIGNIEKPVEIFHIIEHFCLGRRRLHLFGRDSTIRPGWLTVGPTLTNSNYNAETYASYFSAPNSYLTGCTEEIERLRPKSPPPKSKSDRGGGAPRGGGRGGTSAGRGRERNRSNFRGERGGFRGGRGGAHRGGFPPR
Chain of METTL1/WDR4 (Q9UBP6 whole entry, species assumed): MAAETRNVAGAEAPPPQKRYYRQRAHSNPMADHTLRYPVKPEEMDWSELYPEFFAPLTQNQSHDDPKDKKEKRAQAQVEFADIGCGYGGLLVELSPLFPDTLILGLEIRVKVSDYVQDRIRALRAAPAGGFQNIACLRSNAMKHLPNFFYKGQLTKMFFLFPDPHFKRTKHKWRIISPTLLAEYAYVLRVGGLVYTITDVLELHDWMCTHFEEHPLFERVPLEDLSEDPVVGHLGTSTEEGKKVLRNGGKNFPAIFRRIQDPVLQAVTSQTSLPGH
Chain of METTL1/WDR4 (P57081 whole entry partner, species assumed): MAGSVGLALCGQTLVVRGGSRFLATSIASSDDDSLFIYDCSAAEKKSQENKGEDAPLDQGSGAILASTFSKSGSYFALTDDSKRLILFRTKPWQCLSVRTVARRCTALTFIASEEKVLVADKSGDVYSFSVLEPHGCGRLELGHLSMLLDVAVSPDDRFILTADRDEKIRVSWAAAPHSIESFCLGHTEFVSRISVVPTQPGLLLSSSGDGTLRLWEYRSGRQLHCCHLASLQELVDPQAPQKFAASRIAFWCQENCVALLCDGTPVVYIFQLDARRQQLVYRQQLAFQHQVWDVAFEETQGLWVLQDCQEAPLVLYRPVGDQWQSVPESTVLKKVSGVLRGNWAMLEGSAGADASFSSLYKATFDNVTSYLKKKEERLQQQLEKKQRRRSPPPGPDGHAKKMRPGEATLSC
Chain of PRMT5-MEP50 (O14744 whole entry): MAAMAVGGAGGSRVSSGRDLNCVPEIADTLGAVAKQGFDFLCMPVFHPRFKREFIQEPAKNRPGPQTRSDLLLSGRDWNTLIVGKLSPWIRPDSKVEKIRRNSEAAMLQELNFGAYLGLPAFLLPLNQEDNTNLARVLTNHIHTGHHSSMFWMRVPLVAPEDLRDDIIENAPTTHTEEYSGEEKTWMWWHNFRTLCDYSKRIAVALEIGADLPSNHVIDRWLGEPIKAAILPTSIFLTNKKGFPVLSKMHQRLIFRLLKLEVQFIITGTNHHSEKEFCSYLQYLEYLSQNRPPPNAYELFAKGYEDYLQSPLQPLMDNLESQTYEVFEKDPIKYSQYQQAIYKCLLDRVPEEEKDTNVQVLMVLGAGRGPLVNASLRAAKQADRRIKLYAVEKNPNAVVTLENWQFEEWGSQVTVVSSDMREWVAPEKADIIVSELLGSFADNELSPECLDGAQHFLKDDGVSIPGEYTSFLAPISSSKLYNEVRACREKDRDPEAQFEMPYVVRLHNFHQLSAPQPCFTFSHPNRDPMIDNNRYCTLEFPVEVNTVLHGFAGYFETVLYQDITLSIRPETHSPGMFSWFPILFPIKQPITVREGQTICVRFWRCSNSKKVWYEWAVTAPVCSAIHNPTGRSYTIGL
Chain of PRMT5-MEP50 (Q9BQA1 whole entry partner): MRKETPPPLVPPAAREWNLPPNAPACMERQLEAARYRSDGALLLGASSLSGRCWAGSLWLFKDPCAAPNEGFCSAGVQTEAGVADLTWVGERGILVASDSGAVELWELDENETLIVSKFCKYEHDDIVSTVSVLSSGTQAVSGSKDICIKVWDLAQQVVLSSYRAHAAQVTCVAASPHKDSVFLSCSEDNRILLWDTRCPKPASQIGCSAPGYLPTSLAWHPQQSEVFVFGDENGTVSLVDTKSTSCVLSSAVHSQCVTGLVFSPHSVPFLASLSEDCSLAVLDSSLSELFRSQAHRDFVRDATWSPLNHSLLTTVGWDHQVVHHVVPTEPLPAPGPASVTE

`CNc1ccc2ccc(OC[C@H]3O[C@@H](n4cc(C5CCCC5)c5c(N)ncnc54)C[C@@H]3O)cc2n1` [I-30, (2R,3S,5R)-5-(4-amino-5-cyclopentyl-7H-pyrrolo[2,3-d]pyrimidin-7-yl)-2-(((2-(methylamino)quinolin-7-yl)oxy)methyl)tetrahydrofuran-3-ol]: the concentration for half-maximal inhibition (IC50) in assay [1] was 1000 to 10000 nM; in assay [2], less than 1000 nM; in assay [3] (setting [8]), greater than 1000 nM; in assay [4] (setting [9]), less than 10 nM; in assay [5], 1000 to 10000 nM; in assay [6], greater than 1000 nM.
As to `CCNc1ccc2ccc(OC[C@H]3O[C@@H](n4cc(Cl)c5c(N)ncnc54)[C@@H](F)[C@@H]3O)cc2n1` [I-234], the IC50 in assay [1] was 1000 to 10000 nM; in assay [2] it was 1000 to 10000 nM; in assay [3] (setting [8]) it was 10 to 100 nM; in assay [4] (setting [9]), less than 10 nM; in assay [5], 1000 to 10000 nM; in assay [6], greater than 1000 nM.
Consider `CNc1ccc2ccc(OC[C@H]3O[C@@H](n4cc(Cl)c5c(N)ncnc54)C[C@@H]3O)cc2n1` [I-48], for which the IC50 is 1000 to 10000 nM in assay [1]; 1000 to 10000 nM in assay [2]; 100 to 1000 nM in assay [3] (setting [8]); less than 10 nM in assay [4] (setting [9]); greater than 10000 nM in assay [5]; greater than 1000 nM in assay [6] (setting [10]).
With `Nc1ncnc2c1ccn2[C@@H]1C[C@H](CCc2ccccn2)[C@@H](O)[C@H]1O` [I-118], the IC50 in assay [1] is greater than 10000 nM; in assay [2] it was greater than 10000 nM; in assay [3] (setting [8]), 100 to 1000 nM; in assay [4] (setting [9]), greater than 1000 nM; in assay [5] it was greater than 10000 nM; in assay [6] (setting [10]), greater than 1000 nM.
`CN(C)c1ccc2ccc(CC[C@H]3C[C@@H](n4ccc5c(N)ncnc54)[C@H](O)[C@@H]3O)cc2n1` [I-98]: the IC50 in assay [1] was greater than 10000 nM; in assay [2] it was 1000 to 10000 nM; in assay [3] (setting [8]) it was 10 to 100 nM; in assay [4] (setting [9]) it was 10 to 100 nM; in assay [5], greater than 10000 nM; in assay [6] (setting [10]), greater than 1000 nM.
Regarding `CN(C)c1ccc2ccc(OC[C@H]3O[C@@H](n4ccc5c(N)ncnc54)[C@H](O)[C@@H]3O)cc2n1` [I-78], the IC50 is greater than 10000 nM in assay [1]; 1000 to 10000 nM in assay [2]; 10 to 100 nM in assay [3] (setting [8]); 10 to 100 nM in assay [4] (setting [9]); greater than 10000 nM in assay [5]; greater than 1000 nM in assay [6] (setting [10]).
Take `CNc1ccc2ccc(OC[C@H]3O[C@@H](n4cc(Cl)c5c(N)ncnc54)[C@@H](F)[C@@H]3O)cc2n1` [I-45, (2R,3R,4S,5R)-5-(4-amino-5-chloro-7H-pyrrolo[2,3-d]pyrimidin-7-yl)-4-fluoro-2-(((2-(methylamino)quinolin-7-yl)oxy)methyl)tetrahydrofuran-3-ol]: the IC50 is 1000 to 10000 nM in assay [1]; 1000 to 10000 nM in assay [2]; 10 to 100 nM in assay [3] (setting [8]); less than 10 nM in assay [4] (setting [9]); 1000 to 10000 nM in assay [5]; greater than 1000 nM in assay [6].
Take `CNc1ccc2ccc(OC[C@H]3O[C@@H](n4cc(-c5ccc(C)o5)c5c(N)ncnc54)[C@@H](F)[C@@H]3O)cc2n1` [I-148]: the IC50 in assay [1] is less than 1000 nM; in assay [2], less than 1000 nM; in assay [3] (setting [11]) it was 100 to 1000 nM; in assay [4] (setting [12]) it was less than 10 nM; in assay [5], less than 1000 nM; in assay [6] (setting [13]), greater than 1000 nM.
Take `CNc1ccc2ccc(OC[C@H]3O[C@@H](n4cc(-c5cc[nH]n5)c5c(N)ncnc54)[C@@H](F)[C@@H]3O)cc2n1` [I-228]: the IC50 was 1000 to 10000 nM in assay [1]; less than 1000 nM in assay [2]; 100 to 1000 nM in assay [3]; less than 10 nM in assay [4]; less than 1000 nM in assay [5]; greater than 1000 nM in assay [6] (setting [13]).
In the case of `CNc1ccc2ccc(OC[C@H]3O[C@@H](n4cc(-c5cn(C)cn5)c5c(N)ncnc54)[C@@H](F)[C@@H]3O)cc2n1` [I-28], the IC50 was 1000 to 10000 nM in assay [1]; 100 to 1000 nM in assay [3] (setting [11]); less than 10 nM in assay [4] (setting [12]); 1000 to 10000 nM in assay [5]; greater than 1000 nM in assay [7].
Consider `CNc1ccc2ccc(OC[C@H]3O[C@@H](n4cc(Br)c5c(N)ncnc54)[C@@H](F)[C@@H]3O)cc2n1` [I-46], for which the 50% inhibitory concentration (IC50) is 1000 to 10000 nM in assay [1]; less than 1000 nM in assay [2]; 10 to 100 nM in assay [3] (setting [8]); less than 10 nM in assay [4] (setting [9]); 1000 to 10000 nM in assay [5]; greater than 1000 nM in assay [6] (setting [10]).
Consider `CNc1ccc2ccc(CC[C@H]3C[C@@H](n4cc(C5CCCCC5)c5c(N)ncnc54)[C@H](O)[C@@H]3O)cc2n1` [I-59], for which the IC50 in assay [1] is 1000 to 10000 nM; in assay [2], less than 1000 nM; in assay [3] (setting [8]) it was less than 10 nM; in assay [4] (setting [9]), less than 10 nM; in assay [5] it was 1000 to 10000 nM; in assay [6] (setting [10]), greater than 1000 nM.
For the compound `CN(C)c1ccc2ccc(OC[C@H]3O[C@@H](n4cc(C5CCCC5)c5c(N)ncnc54)[C@H](O)[C@@H]3O)cc2n1` [I-42], the IC50 in assay [1] was 1000 to 10000 nM; in assay [2] it was 1000 to 10000 nM; in assay [3] (setting [8]) it was 10 to 100 nM; in assay [4] (setting [9]) it was less than 10 nM; in assay [5], 1000 to 10000 nM; in assay [6] (setting [10]) it was greater than 1000 nM.
As to `CNc1ccc2ccc(CC[C@H]3C[C@@H](n4cc(CO)c5c(N)ncnc54)[C@H](O)[C@@H]3O)cc2n1` [I-52, (1R,2S,3R,5S)-3-[4-amino-5-(hydroxymethyl)-7H-pyrrolo[2,3-d]pyrimidin-7-yl]-5-{2-[2-(methylamino)quinolin-7-yl]ethyl}cyclopentane-1,2-diol], the half-inhibitory concentration (IC50) in assay [1] was 1000 to 10000 nM; in assay [3] (setting [8]), less than 10 nM; in assay [4] (setting [9]) it was less than 10 nM; in assay [7] it was greater than 1000 nM; in assay [6], greater than 1000 nM.

(Values after patent publication US20230027361A1, “METTL3 MODULATORS” (priority 2019, published 2023).)
